Measured values: patent publication US20140031296A1, “NEW SYNTHETIC PEPTIDES AND THEIR USE” (PERGAMUM AB, priority 2011, published 2014)

Key:
S. aureus (CCUG 1800) = test: Minimal microbicidal concentration (MMC99) assay, S. aureus; format: cell-based; conditions: 2 hours; for MMC99 μM in 50% SWF: 50% heat inactivated simulated wound fluid
Method: Antimicrobial Activity was Measured as Bactericidal Effect on S. aureus Using Minimal Microbicidal Concentration, MMC99, Assay)
S. aureus (#1800; CCUG, Gothenburg, Sweden) cultured on blood-agar plates [Columbia agar (Oxoid, Basingstoke, UK) supplemented with 5% defibrinated horse blood (National Veterinary Institute (SVA), Uppsala, Sweden)] were transferred to brain heart infusion broth (3.7% BHI; Difco, BD Diagnostics, Franklin Lakes, N.J., USA) and incubated in a shaker at 250 rpm+37° C. over night. The culture was thereafter be diluted 1:10 in fresh BHI broth and incubated for additional two hours to reach log-phase growth. The bacteria were pelleted and suspended in 1% BHI medium (BHI broth diluted 100 times in ultra-pure water) to a concentration of 10^7 bacteria/ml as estimated by measuring optical density at 600 nm. Peptides were serially diluted by two-fold steps from 160 μM to 1.25 μM in 1% BHI medium. The peptides (100 μl) were thereafter incubated with bacteria (5 μl á 10^7 bact./ml) for 2 hours at +37° C. Drops (5 μl) of the suspension were placed on blood agar plates. The blood agar plates were incubated over night at +37° C. The MMC99 values, i.e. the lowest peptide concentration needed to achieve a 99% reduction of viable bacteria, were recorded (Table 3). The concentration of the bacterial suspension used in the assay was confirmed by viable counts on blood agar plates.
S. aureus (#1800; CCUG, Gothenburg, Sweden) cultured on blood-agar plates [Columbia agar (Oxoid, Basingstoke, UK) supplemented with 5% defibrinated horse blood (National Veterinary Institute (SVA), Uppsala, Sweden)] were transferred to brain heart infusion broth (3.7% BHI; Difco, BD Diagnostics, Franklin Lakes, N.J., USA) and incubated in a shaker at 250 rpm+37° C. over night. The culture was thereafter be diluted 1:10 in fresh BHI broth and incubated for additional two hours to reach log-phase growth. The bacteria were pelleted and suspended in 1% BHI medium (BHI broth diluted 100 times in ultra-pure water) to a final concentration of 10^7 bacteria/ml as estimated by measuring optical density at 600 nm.
Peptides were serially diluted by two-fold steps from 400 μM to 0.78 μM in either 1% BHI medium or in 50% heat inactivated simulated wound fluid [SWF, containing 1 part 0.1% peptone (Oxoid, Basingstoke, UK) in saline and 1 part fetal bovine serum, diluted 2 times in ultra-pure water].
The peptides (100 μl) were thereafter incubated with bacteria (5 μl a 10^7 bact./ml) for 2 hours at +37° C. Drops (5 μl) of the suspension were placed on blood agar plates. The blood agar plates were incubated over night at +37° C. The MMC99 values, i.e. the lowest peptide concentration needed to achieve a 99% reduction of viable bacteria were recorded (Table 6). The concentration of the bacterial suspension used in the assay was confirmed by viable counts on blood agar plates.
The antimicrobial effects of the peptides 232 (SEQ ID NO: 78), and 220 (SEQ ID NO:67) were analysed by MMC99 (minimal microbicidal concentration) assay against S. aureus (CCUG 1800), MRSA (CCUG 41879), P. aeruginosa (ATCC 15442), E. coli (CCUG 31246), S. pyogenes (CCUG 4207), P. acnes (CCUG 1794T), S. epidermidis (ATCC12228), K. pneumoniae (ATCC 13883), A. baumannii (ATCC 19606), and C. albicans (ATCC 64549). The peptides were purchased from Biopeptide Company (San Diego, Calif., USA) and Bachem AG (Bubendorf, Switzerland) and results are presented in Table 8A and 8B respectively.
Peptides were serially diluted in two different assay medium, 1% BHI medium (brain-heart infusion medium) or 50% heat inactivated simulated wound fluid (SWF), and thereafter incubated with the microorganisms for 2 hours. Drops of the suspension were placed on blood agar plates. The MMC99 values, i.e. the lowest peptide concentration needed to achieve a 99% reduction of viable microorganisms, were recorded. As presented in Table 8, all the peptides have the ability to kill microorganisms frequently appearing in infections. […]

[1] = system: TNF-α production in LPS stimulated THP-1 cells; test: Inhibition of TNF-α production in LPS stimulated THP-1 cells (ELISA); format: cell-based, human; conditions: mean relative secretion, basal = 0%; for TNF-α at 4 μM peptide / TNF-α at 10 μM peptide: stimulated = 100%; for TNF-α at 40 μM peptide: LPS-stimulated level without peptide = 100%
Method: After 6 hours of incubation at +37° C., 5% CO2 and in a humid atmosphere, the cell supernatants were collected, centrifuged and kept frozen in −20° C. until analyzed for TNF-α content by ELISA (R&D Systems, Minneapolis, Minn., USA). The results are presented as mean relative secretion (%), with stimulated TNF-α level without peptide added set to 100% and basal secretion set to 0% (Table 2).
After 6 hours of incubation, the cell supernatants were collected, centrifuged, and kept frozen in −20° C. until analyzed for TNF-α content by ELISA (R&D Systems, Minneapolis, Minn., USA). The results are presented as mean relative secretion (%), with stimulated TNF-α level without peptide added set to 100% and basal secretion set to 0% (Table 5).

[2] = screen 1, 99% reduction of viable bacteria

## NSLFEKLAQWLRQLRKVR [Peptide 222]
S. aureus (CCUG 1800); screen 2
  MMC99 μM in 1% BHI medium: 12.5 µM
  MMC99 μM in 50% SWF: 100 µM
[1]; screen 2
  TNF-α at 4 μM peptide: 89.2%
  TNF-α at 10 μM peptide: 65.9%
  TNF-α at 40 μM peptide: 32.9%

## QTEADKCFQWQRNMRKVR [Peptide 106] (QNEADKCFQWQRNMRKVR)
S. aureus (CCUG 1800); [2]
  MMC99 μM in 1% BHI medium: 160 µM
[1]; screen 1
  TNF-α at 40 μM peptide: 96%

## QREARKFRQWLRNMTKVR [Peptide 203]
[1]; screen 2
  TNF-α at 40 μM peptide: 98.1%

## FQWQRNLRKLR [Peptide 135]
S. aureus (CCUG 1800); [2]
  MMC99 μM in 1% BHI medium: 20 µM
[1]; screen 1
  TNF-α at 40 μM peptide: 103%

## QSRATKRFQWLRNHRKVL [Peptide 208]
[1]; screen 2
  TNF-α at 40 μM peptide: 130.2%

## CFQWKRAMRKVR [Peptide 123]
S. aureus (CCUG 1800); [2]
  MMC99 μM in 1% BHI medium: 20 µM
[1]; screen 1
  TNF-α at 40 μM peptide: 156%

## FQWQRPIRKVR [Peptide 137]
S. aureus (CCUG 1800); [2]
  MMC99 μM in 1% BHI medium: >160 µM
[1]; screen 1
  TNF-α at 40 μM peptide: 137%

## RSLAQKLFQWLRNLRKVR [Peptide 219]
S. aureus (CCUG 1800); screen 2
  MMC99 μM in 1% BHI medium: 6.25 µM
  MMC99 μM in 50% SWF: 12.5 µM
[1]; screen 2
  TNF-α at 4 μM peptide: 68.5%
  TNF-α at 10 μM peptide: 44.0%
  TNF-α at 40 μM peptide: 7.3%

## FQWKPAIRKVR [Peptide 140]
S. aureus (CCUG 1800); [2]
  MMC99 μM in 1% BHI medium: >160 µM
[1]; screen 1
  TNF-α at 40 μM peptide: 117%

## QSLAEKLFWQLRNLRKVR [Peptide 221]
[1]; screen 2
  TNF-α at 40 μM peptide: 94.4%

## WFKCFQWQRNMRKVR [Peptide 243]
[1]; screen 2
  TNF-α at 40 μM peptide: 113.1%

## CRLWRRNMRKVR [Peptide 229]
[1]; screen 2
  TNF-α at 40 μM peptide: 108.5%

## WFQWKRRMRKVR [Peptide 129]
S. aureus (CCUG 1800); [2]
  MMC99 μM in 1% BHI medium: 10 µM
[1]; screen 1
  TNF-α at 40 μM peptide: 91%

## FQWRRAIRKVR [Peptide 125]
S. aureus (CCUG 1800); [2]
  MMC99 μM in 1% BHI medium: 20 µM
[1]; screen 1
  TNF-α at 40 μM peptide: 150%

## NEADKCFQWQRNMRKVR [Peptide 109]
S. aureus (CCUG 1800); [2]
  MMC99 μM in 1% BHI medium: 160 µM
[1]; screen 1
  TNF-α at 40 μM peptide: 47%

## KKLWRRWWRKVL [Peptide 244]
S. aureus (CCUG 1800); screen 2
  MMC99 μM in 1% BHI medium: 12.5 µM
  MMC99 μM in 50% SWF: 50 µM
[1]; screen 2
  TNF-α at 4 μM peptide: 107.7%
  TNF-α at 10 μM peptide: 116.7%
  TNF-α at 40 μM peptide: 10.7%

## LRLWRRSMRKVW [Peptide 235]
[1]; screen 2
  TNF-α at 40 μM peptide: 89.3%

## LVWIKRHIKKFK [Peptide 246]
[1]; screen 2
  TNF-α at 40 μM peptide: 125.5%

## WRRWLRKMVKRL [Peptide 249]
S. aureus (CCUG 1800); screen 2
  MMC99 μM in 1% BHI medium: 12.5 µM
  MMC99 μM in 50% SWF: 6.25 µM
[1]; screen 2
  TNF-α at 4 μM peptide: 91.2%
  TNF-α at 10 μM peptide: 78.0%
  TNF-α at 40 μM peptide: −0.7%

## QESARKQFRWLRNLTKVL [Peptide 202]
[1]; screen 2
  TNF-α at 40 μM peptide: 90.3%

## CFKWKRKMRKVR [Peptide 147]
S. aureus (CCUG 1800); [2]
  MMC99 μM in 1% BHI medium: 10 µM
[1]; screen 1
  TNF-α at 40 μM peptide: 111%

## QPEATKCFQWQRNMRKVR [Peptide 104]
S. aureus (CCUG 1800); [2]
  MMC99 μM in 1% BHI medium: >160 µM
[1]; screen 1
  TNF-α at 40 μM peptide: 132%

## CFLWRRLMRKLR [Peptide 228]
S. aureus (CCUG 1800); screen 2
  MMC99 μM in 1% BHI medium: 12.5 µM
  MMC99 μM in 50% SWF: 50 µM
[1]; screen 2
  TNF-α at 4 μM peptide: 106.6%
  TNF-α at 10 μM peptide: 95.4%
  TNF-α at 40 μM peptide: 53.6%

## QSEATKLFQWQRNMRKVR [Peptide 112]
S. aureus (CCUG 1800); [2]
  MMC99 μM in 1% BHI medium: >160 µM
[1]; screen 1
  TNF-α at 40 μM peptide: 101%

## VWIVKKQVKRIK [Peptide 245]
[1]; screen 2
  TNF-α at 40 μM peptide: 146.3%

## TKCFLWRRNMRKVRG [Peptide 242]
[1]; screen 2
  TNF-α at 40 μM peptide: 116.8%

## RWCFLWRRLMRKHRRL [Peptide 240]
S. aureus (CCUG 1800); screen 2
  MMC99 μM in 1% BHI medium: 12.5 µM
  MMC99 μM in 50% SWF: 25 µM
[1]; screen 2
  TNF-α at 4 μM peptide: 78.3%
  TNF-α at 10 μM peptide: 59.9%

## LVKRLNRLWQFRKTAESQ [Peptide 216]
[1]; screen 2
  TNF-α at 40 μM peptide: 121.9%

## FQWKRAMRKVR [Peptide 122]
S. aureus (CCUG 1800); [2]
  MMC99 μM in 1% BHI medium: 20 µM

## QSEATKRFQWLRNLRKVL [Peptide 217]
[1]; screen 2
  TNF-α at 40 μM peptide: 103.0%

## CFQWKRAMRKVR [Peptide 144]
S. aureus (CCUG 1800); [2]
  MMC99 μM in 1% BHI medium: 10 µM
[1]; screen 1
  TNF-α at 40 μM peptide: 140%

## LRLWRRLMRKVW [Peptide 231]
S. aureus (CCUG 1800); screen 2
  MMC99 μM in 1% BHI medium: 12.5 µM
  MMC99 μM in 50% SWF: 50 µM
[1]; screen 2
  TNF-α at 4 μM peptide: 102.6%
  TNF-α at 10 μM peptide: 89.1%
  TNF-α at 40 μM peptide: 49.8%

## VSQSEATKRFQWLRNLRKVL [Peptide 214]
[1]; screen 2
  TNF-α at 40 μM peptide: 88.8%

## WRRWLRKSVKRL [Peptide 247]
[1]; screen 2
  TNF-α at 40 μM peptide: 88.2%

## CFLWRRSMRRLR [Peptide 236]
[1]; screen 2
  TNF-α at 40 μM peptide: 94.4%

## CFLWRRNMRKVR [Peptide 227]
[1]; screen 2
  TNF-α at 40 μM peptide: 111.0%

## GRRRRSVQWCA [Peptide 255]
[1]; screen 2
  TNF-α at 40 μM peptide: 100.7%

## CRLWRRRMRKVW [Peptide 233]
[1]; screen 2
  TNF-α at 40 μM peptide: 90.7%

## EATKCFQWQRNMRKVR [Peptide 158]
[1]; screen 1
  TNF-α at 40 μM peptide: 91%

## QSEATKCFLWRRNMRKVR [Peptide 225]
[1]; screen 2
  TNF-α at 40 μM peptide: 111.6%

## QSAKTACFLWRRNMRKVR [Peptide 226]
[1]; screen 2
  TNF-α at 40 μM peptide: 108.7%

## QREARKRFQWLRNMTKVR [Peptide 201]
[1]; screen 2
  TNF-α at 40 μM peptide: 128.6%

## CFLWRRLMRKV [Peptide 237]
[1]; screen 2
  TNF-α at 40 μM peptide: 89.2%

## QSRATKRFQWHRNARKVL [Peptide 207]
[1]; screen 2
  TNF-α at 40 μM peptide: 160.9%

## LRTWRRLTRKVW [Peptide 234]
[1]; screen 2
  TNF-α at 40 μM peptide: 102.0%

## QSAARTFKQWARNLRKTL [Peptide 210]
[1]; screen 2
  TNF-α at 40 μM peptide: 101.0%

## QSEYTKRYQWLRNLRKVL [Peptide 204]
[1]; screen 2
  TNF-α at 40 μM peptide: 96.9%
